This note sets out measurements from ChEMBL document CHEMBL1137536, “Dipeptidyl aspartyl fluoromethylketones as potent caspase inhibitors: peptidomimetic replacement of the P(2) amino acid by 2-aminoaryl acids and other non-natural amino acids” (Bioorg Med Chem Lett, 2007).

One assay deals with HeLa. As to the kind of experiment: Inhibition of TNF-alpha-induced apoptosis in HeLa cells assessed as cell protection. The conditions noted are these: Homo sapiens.
Another assay has as its target T1, Caspase-6 (Homo sapiens, UniProt P55212).
T1 sequence (P55212 whole entry): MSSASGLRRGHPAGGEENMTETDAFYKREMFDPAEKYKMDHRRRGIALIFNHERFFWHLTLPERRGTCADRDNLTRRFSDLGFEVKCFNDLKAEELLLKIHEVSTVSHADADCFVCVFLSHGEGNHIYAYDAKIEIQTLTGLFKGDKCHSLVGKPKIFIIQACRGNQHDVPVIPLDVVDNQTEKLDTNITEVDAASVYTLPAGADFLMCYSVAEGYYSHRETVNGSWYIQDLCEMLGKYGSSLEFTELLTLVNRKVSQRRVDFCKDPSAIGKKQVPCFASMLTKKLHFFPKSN
As to the kind of experiment: Inhibition of human caspase 6.

For another assay, the target named is T2, Caspase-1 (Homo sapiens, UniProt P29466).
T2 sequence (P29466 whole entry): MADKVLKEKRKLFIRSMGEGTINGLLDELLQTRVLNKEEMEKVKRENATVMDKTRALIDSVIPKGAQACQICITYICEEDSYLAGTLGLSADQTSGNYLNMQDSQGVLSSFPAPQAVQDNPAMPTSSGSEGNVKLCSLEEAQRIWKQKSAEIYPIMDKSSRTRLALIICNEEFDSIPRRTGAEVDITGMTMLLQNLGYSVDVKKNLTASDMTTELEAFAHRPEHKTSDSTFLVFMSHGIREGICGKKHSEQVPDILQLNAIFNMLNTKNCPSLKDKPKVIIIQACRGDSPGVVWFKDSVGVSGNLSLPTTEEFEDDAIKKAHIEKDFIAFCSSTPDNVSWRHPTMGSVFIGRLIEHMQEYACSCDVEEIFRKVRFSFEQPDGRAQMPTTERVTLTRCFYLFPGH
As to the kind of experiment: Inhibition of human caspase 1.

The target in another assay is T3, Caspase-9 (Homo sapiens, UniProt P55211).
T3 sequence (P55211 whole entry): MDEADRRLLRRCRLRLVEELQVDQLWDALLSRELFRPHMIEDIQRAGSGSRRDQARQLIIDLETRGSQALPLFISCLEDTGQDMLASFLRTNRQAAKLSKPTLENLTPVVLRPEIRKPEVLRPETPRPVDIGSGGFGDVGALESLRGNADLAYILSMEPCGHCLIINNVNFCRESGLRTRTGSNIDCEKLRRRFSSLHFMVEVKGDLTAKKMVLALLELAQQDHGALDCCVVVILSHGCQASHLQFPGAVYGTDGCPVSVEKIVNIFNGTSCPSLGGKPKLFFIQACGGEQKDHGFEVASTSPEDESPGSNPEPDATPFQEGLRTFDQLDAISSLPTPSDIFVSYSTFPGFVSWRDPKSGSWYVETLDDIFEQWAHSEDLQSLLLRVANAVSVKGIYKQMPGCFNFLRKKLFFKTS
As to the kind of experiment: Inhibition of human caspase 9.

Another assay concerns the target Caspase-8 (Homo sapiens, UniProt Q14790). In words: Inhibition of human caspase 8.
The target of another assay is T4, Caspase-7 (Homo sapiens, UniProt P55210).
T4 sequence (P55210 whole entry): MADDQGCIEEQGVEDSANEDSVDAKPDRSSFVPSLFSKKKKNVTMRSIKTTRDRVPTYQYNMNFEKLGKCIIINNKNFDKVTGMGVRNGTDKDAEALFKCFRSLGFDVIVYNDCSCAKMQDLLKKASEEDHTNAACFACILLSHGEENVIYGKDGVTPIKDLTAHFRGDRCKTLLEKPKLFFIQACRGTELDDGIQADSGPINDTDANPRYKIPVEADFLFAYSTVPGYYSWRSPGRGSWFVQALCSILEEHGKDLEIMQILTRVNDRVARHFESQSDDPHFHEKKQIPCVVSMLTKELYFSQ
As to the kind of experiment: Inhibition of human caspase 7.

The next assay concerns the target T5, Caspase-3 (Homo sapiens, UniProt P42574).
T5 sequence (P42574 whole entry): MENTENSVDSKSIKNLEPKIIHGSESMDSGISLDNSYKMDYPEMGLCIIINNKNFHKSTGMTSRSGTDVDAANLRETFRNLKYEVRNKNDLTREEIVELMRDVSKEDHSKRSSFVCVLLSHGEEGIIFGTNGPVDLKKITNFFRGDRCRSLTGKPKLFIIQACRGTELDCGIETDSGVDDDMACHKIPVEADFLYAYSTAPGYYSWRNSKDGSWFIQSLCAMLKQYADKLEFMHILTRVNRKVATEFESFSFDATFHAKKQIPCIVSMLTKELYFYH
In words: Inhibition of human recombinant caspase 3 by fluorometric assay.

Sequence of Caspase-8 (Q14790 217-374 limits assumed): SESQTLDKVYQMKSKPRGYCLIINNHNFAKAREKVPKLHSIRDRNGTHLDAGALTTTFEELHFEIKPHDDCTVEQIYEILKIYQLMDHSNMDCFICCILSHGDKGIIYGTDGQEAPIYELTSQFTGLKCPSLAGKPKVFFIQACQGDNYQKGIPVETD
Sequence of Caspase-8 (Q14790 385-479 limits assumed): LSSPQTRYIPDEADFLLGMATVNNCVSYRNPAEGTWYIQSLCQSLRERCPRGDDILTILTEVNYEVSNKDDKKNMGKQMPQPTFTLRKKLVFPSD

For orientation: IC50 means the concentration that gives 50% inhibition. Take `O=C(O)CC(NC(=O)c1sccc1NC(=O)OCc1ccccc1)C(=O)CF` (stereo not given): the concentration for half-maximal inhibition (IC50) in the assay with HeLa was above 2000 nM.

Consider `O=C(O)CN(C(=O)CF)C(=O)[C@H]1CCN1C(=O)OCc1ccccc1`, for which, in the assay with HeLa, the IC50 was 1700 nM.

In the case of `CC(C)[C@H](NC(=O)OCc1ccccc1)C(=O)Nc1ccccc1C(=O)NC(CC(=O)O)C(=O)CF` (stereo not given in full), the IC50 against Caspase-6 stood at 61 nM; at Caspase-1, 12 nM; against Caspase-9, 6 nM; at Caspase-8, 6 nM; against Caspase-7, 11 nM; at Caspase-3, 33 nM.

In the case of `O=C(O)CC(NC(=O)c1ccccc1NC(=O)OCc1ccccc1)C(=O)CF` (stereo not given), in the assay with HeLa, the 50% inhibitory concentration (IC50) is 4000 nM.

Turning to `O=C(O)CN(C(=O)CF)C(=O)[C@H]1CCCN1C(=O)OCc1ccccc1`, the IC50 with HeLa was above 2000 nM.
